# Patent publication US20240245711A1, “A 19-NOR C3,3-DISUBSTITUTED C21-N-PYRAZOLYL STEROID FOR THE TREATMENT OF MAJOR DEPRESSIVE DISORDER” (Sage Therapeutics, Inc., priority 2021, published 2024)
# Values joined by “and” are separate entries in the source; they are usually repeats but may differ in a detail not shown here. Equal entries are not always repeated.
# Tested on: adult subjects with Major Depressive Disorder
# Experiment: Phase 3 open-label 1-year study: HAM-D total score, response and remission
# Assay type: in vivo, human
# Conditions: for HAM-D Total Score, Mean Percent Change from Period-Specific Baseline / HAM-D Total Score, Mean Change from Period-Specific Baseline: Low Dose Cohort (FAS); for HAM-D Remission / HAM-D Response / HAM-D total score, Mean % CFB ± SD / HAM-D total score, Mean CFB ± SD: Study Period 1, safety set, 30 mg Cohort (N = 725)
# Text: Secondary Objective: To assess the need for re-treatment with Compound (1) following initial treatment in adults with MDD currently experiencing an MDE over a 1-year period, and to assess the response of initial treatment and re-treatment(s) with Compound (1) following an initial 2-week treatment period in adults with MDD currently experiencing an MDE over a 1-year period.
# Secondary Endpoints: The need for re-treatment with Compound (1) as assessed by: time to first re-treatment (Kaplan-Meier curves), number of subjects achieving the requirements for re-treatment, number of re-treatment cycles for each subject, the response of initial treatment and/or re-treatment as assessed by: change from baseline in the 17-item Hamilton Rating Scale for Depression (HAM-D) total score at the end of each 14-day treatment (initial and/or re-treatment) period, HAM-D response at the end of each 14-day treatment (initial and/or re-treatment) period, defined as a ≥50% reduction in HAM-D score from baseline, HAM-D remission at the end of each 14-day treatment (initial and/or re-treatment) period, defined as HAM-D total score≤7, Clinical Global Impression-Improvement (CGI-I) response, defined as “much improved” or “very much improved”, at the end of each 14-day treatment (initial and/or re-treatment) period, change from baseline in Clinical Global Impression-Severity (CGI-S) score at the end of each 14-day treatment (initial and/or re-treatment) period.
# Study Population: Subjects were 18-75 years old, diagnosed with major depressive disorder (MDD) with a MADRS total score of ≥28 and a HAM-D total score of ≥20 at Screening and Day 1 (prior to dosing).
# Treatment Groups: The 30 mg and 50 mg dose groups were separated by time of enrollment. The study is comprised of two cohorts: one with Compound (1) 30 mg as a starting dose (30 mg Cohort: n=725), an initial cohort with Compound (1) 50 mg as a starting dose (50 mg Cohort: n=199). A patient receiving Compound (1) 30 mg could be dose reduced to 20 mg and patients receiving Compound (1) 50 mg could be dose reduced to 40 mg (based on tolerability). In all cohorts, Compound (1) is self-administered by patients as an oral therapy once nightly with food for 14 days.
# Eligible subjects were given Compound (1)—to be taken at home in the evening with meal.
# The cohorts pertaining to the different doses that the subjects received were defined as following: • 50 mg cohort: This cohort includes subjects who have initiated treatment with 50 mg and received re-treatment with 50 mg only. • 30 mg cohort: This cohort includes subjects who have initiated treatment with 30 mg regardless of the dose they have received in re-treatments. • Low dose cohort: This cohort includes subjects who have initiated treatment with 30 mg and received re-treatment with 30 mg only. • Dose switch cohort: This cohort includes subjects who have received initial treatment with 30 mg and at least one subsequent re-treatment with 50 mg. • Study Period X: starts on the date of the first dose of Compound (1) in cycle X and goes up to one day prior to the first dose of the next cycle. In some embodiments, X is any number from 1 to 5. • Treatment Period X: starts on the date of the first dose of Compound (1) in cycle X and goes up to one day after the last dose in cycle X. In some embodiments, X is any number from 1 to 5. • Treatment Cycle X: starts on the date of the first dose of Compound (1) in cycle X and goes up to 14 days after the last dose in cycle X. The treatment cycles may be denoted as C1-C5. • Observation period X: starts the day after Treatment Cycle X ends and goes up to one day prior to the start of next treatment cycle. In some embodiments, X is any number from 1 to 5.
# Analysis Sets: The safety set was defined as all subjects who were administered study drug. The period-specific safety set includes subjects in the safety set who were administered study drug in the corresponding treatment cycle. […]
# [1] = subjects dosed in Cycle 4 (43), Cycle 1, Day 28
# [2] = subjects dosed in Cycle 4 (43), Cycle 2, Day 15
# [3] = subjects dosed in Cycle 4 (43), Cycle 2, Day 28
# [4] = subjects dosed in Cycle 4 (43), Cycle 3, Day 15
# [5] = subjects dosed in Cycle 4 (43), Cycle 3, Day 28
# [6] = subjects dosed in Cycle 4 (43), Cycle 4, Day 15
# [7] = subjects dosed in Cycle 4 (43), Cycle 4, Day 28
# [8] = subjects dosed in Cycle 5 (20), Cycle 1, Day 15
# [9] = subjects dosed in Cycle 5 (20), Cycle 1, Day 28
# [10] = subjects dosed in Cycle 5 (20), Cycle 2, Day 15
# [11] = subjects dosed in Cycle 5 (20), Cycle 2, Day 28
# [12] = subjects dosed in Cycle 5 (20), Cycle 3, Day 15
# [13] = subjects dosed in Cycle 5 (20), Cycle 3, Day 28
# [14] = subjects dosed in Cycle 5 (20), Cycle 4, Day 15
# [15] = subjects dosed in Cycle 5 (20), Cycle 4, Day 28
# [16] = subjects dosed in Cycle 5 (20), Cycle 5, Day 28
compound,measurement,setting,value
"C[C@@]1(O)CC[C@H]2[C@H](CC[C@@H]3[C@@H]2CC[C@]2(C)[C@@H](C(=O)Cn4cc(C#N)cn4)CC[C@@H]32)C1 [Compound (1), 1-(2-((3R,5R,8R,9R,10S,13S,14S,17S)-3-hydroxy-3,13-dimethylhexadecahydro-1H-cyclopenta[a]phenanthren-17-yl)-2-oxoethyl)-1H-pyrazole-4-carbonitrile]","HAM-D Total Score, Mean Percent Change from Period-Specific Baseline","subjects dosed in Cycle 4 (43), Cycle 1, Day 15",−68.2
same,"HAM-D Total Score, Mean Change from Period-Specific Baseline",[1],−13.0
same,"HAM-D Total Score, Mean Percent Change from Period-Specific Baseline",[1],−52.0
same,"HAM-D Total Score, Mean Change from Period-Specific Baseline",[2],−12.1
same,"HAM-D Total Score, Mean Percent Change from Period-Specific Baseline",[2],−49.6
same,"HAM-D Total Score, Mean Change from Period-Specific Baseline",[3],−10.4
same,"HAM-D Total Score, Mean Percent Change from Period-Specific Baseline",[3],−42.4
same,"HAM-D Total Score, Mean Change from Period-Specific Baseline",[4],−12.7
same,"HAM-D Total Score, Mean Percent Change from Period-Specific Baseline",[4],−54.1
same,"HAM-D Total Score, Mean Change from Period-Specific Baseline",[5],−11.1
same,"HAM-D Total Score, Mean Percent Change from Period-Specific Baseline",[5],−46.9
same,"HAM-D Total Score, Mean Change from Period-Specific Baseline",[6],−11.7
same,"HAM-D Total Score, Mean Percent Change from Period-Specific Baseline",[6],−50.0
same,"HAM-D Total Score, Mean Change from Period-Specific Baseline",[7],−9.9
same,"HAM-D Total Score, Mean Percent Change from Period-Specific Baseline",[7],−41.9
same,"HAM-D Total Score, Mean Change from Period-Specific Baseline",[8],−16.5
same,"HAM-D Total Score, Mean Percent Change from Period-Specific Baseline",[8],−66.9
same,"HAM-D Total Score, Mean Change from Period-Specific Baseline",[9],−11.3
same,"HAM-D Total Score, Mean Percent Change from Period-Specific Baseline",[9],−45.7
same,"HAM-D Total Score, Mean Change from Period-Specific Baseline",[10],−11.1
same,"HAM-D Total Score, Mean Percent Change from Period-Specific Baseline",[10],−45.1
same,"HAM-D Total Score, Mean Change from Period-Specific Baseline",[11],−9.2
same,"HAM-D Total Score, Mean Percent Change from Period-Specific Baseline",[11],−37.8
same,"HAM-D Total Score, Mean Change from Period-Specific Baseline",[12],−11.9
same,"HAM-D Total Score, Mean Percent Change from Period-Specific Baseline",[12],−51.5
same,"HAM-D Total Score, Mean Change from Period-Specific Baseline",[13],−10.7
same,"HAM-D Total Score, Mean Percent Change from Period-Specific Baseline",[13],−46.1
same,"HAM-D Total Score, Mean Change from Period-Specific Baseline",[14],−11.6
same,"HAM-D Total Score, Mean Percent Change from Period-Specific Baseline",[14],−48.9
same,"HAM-D Total Score, Mean Change from Period-Specific Baseline",[15],−7.7
same,"HAM-D Total Score, Mean Percent Change from Period-Specific Baseline",[15],−32.6
same,"HAM-D Total Score, Mean Change from Period-Specific Baseline","subjects dosed in Cycle 5 (20), Cycle 5, Day 15","17, −11.6/—"
same,"HAM-D Total Score, Mean Change from Period-Specific Baseline",[16],−7.1
same,"HAM-D Total Score, Mean Percent Change from Period-Specific Baseline",[16],−30.6
same,"Withdrawn in Treatment Cycle 1: Exit for non-response, n (%)",Low Dose Cohort (n = 645),146 (22.6%)
same,HAM-D Remission,Day 8,(17.8%)
same,HAM-D Response,Day 8,295/704 (41.9%)
same,"HAM-D total score, Mean % CFB ± SD",Day 8,−42.9 ± 25.68%
same,"HAM-D total score, Mean CFB ± SD",Day 8,−10.9 ± 6.75
same,"HAM-D total score, Mean % CFB ± SD",Day 15,−60.0 ± 25.61%
same,"HAM-D total score, Mean CFB ± SD",Day 15,−15.2±7.1 and −15.2 ± 7.07
same,HAM-D Remission,Day 28,(32.6%)
same,HAM-D Response,Day 28,372/681 (54.6%)
same,"HAM-D total score, Mean % CFB ± SD",Day 28,−51.9 ± 29.96%
same,"HAM-D total score, Mean CFB ± SD",Day 28,−13.3 ± 8.07
same,HAM-D Remission,Day 70,(30.0%)
same,HAM-D Response,Day 70,193/384 (50.3%)
same,"HAM-D total score, Mean % CFB ± SD",Day 70,−46.6 ± 34.25%
same,"HAM-D total score, Mean CFB ± SD",Day 70,−12.1 ± 9.12
same,HAM-D Remission,Day 126,(47.3%)
